Experimental data published in US8729048B2, “Methods and materials for assessing responsiveness to PARP inhibitors and platinating agents” (Mayo Foundation for Medical Education and Research, priority 2011, dated 2014).

What was measured:
Type in all cases: cell-based
[1] = tested on: DNA-PK substrates (DNA-PKcs Thr2609, Histone H2AX Ser139) in PEO1 cells; test: Immunoblotting for phosphorylation of DNA-PK substrates; details: 72 hours
Protocol: (§1) FIG. 2. DNA-PK is activated following PARP inhibitor exposure in PEO1 cells. (A) Western blots for poly(ADP-ribose) polymer (pADPr) and phosphorylation of DNA-PK substrates (DNA-PKcs autophosphorylation at Thr^2609 and Histone H2AX at Ser^139) in PEO1 cells following 72 hours exposure to increasing concentrations of ABT-888 (0, 0.625, 1.25, 2.5, 5, 10, 20, and 40 μM). Hsp90, total DNA-PKcs, and Histone H1 are used as loading controls. (B) Phosphorylation of DNA-PK substrates after treatment for 72 hours with diluent (0.2% DMSO, lanes 1 and 4), 500 nM DNA-PK inhibitor AZ12594248 (DNA-PKi, lanes 2 and 5), or 5 μM ATM inhibitor KU55933 (ATMi, lanes 3 and 6) alone (lanes 1-3) or in combination with 20 μM ABT-888 (lanes 4-6). (C) Quantitation of cells positive for phospho-H2AX foci in PEO1 and PEO4 cells, following treatment with DMSO, 500 nM DNA-PKi, 20 μM ABT-888 (ABT), ABT-888 and DNA-PKi, 50 μM Etoposide (Etop), or 5 Gy ionizing radiation (IR). Cells were exposed to ABT-888 and/or DNA-PKi for 72 hours, etoposide for 1 hour, or allowed to recover for 1 hour after IR. Results are reported as mean±SEM of 3 independent experiments. (D) Confocal images of PEO1 cells treated as in […]. Phospho-Ser^139-H2AX is shown in green, phospho-Thr^2609-DNA-PKcs in red, and Hoechst 33258 in blue.
Cells were washed twice with calcium- and magnesium-free Dulbecco's phosphate-buffered saline (PBS) and solubilized in 6 M guanidine hydrochloride containing 250 mM Tris-HCl, pH 8.5 at 20° C., 10 mM EDTA, 1% (v/v) 2-mercaptoethanol, and 1 mM freshly added phenylmethylsulfonyl fluoride. After preparation for electrophoresis as described elsewhere (Kaufmann et al., Blood, 89:2098-2104 (1997)), aliquots containing 50 μg of protein (determined by the bicinchoninic acid method—S10) were separated on SDS-polyacrylamide gels containing 8% (w/v) acrylamide, electrophoretically transferred to nitrocellulose, and probed with immunological reagents as described elsewhere (Kaufmann, Anal. Biochem., 296:283-286 (2001)). […]

[2] = tested on: phospho-H2AX and phospho-DNA-PKcs foci in PEO1 cells; test: Immunofluorescence / confocal foci in PEO1 cells
Protocol: as §1
FIG. 8. PARP inhibition induces phosphorylation of DNA-PKcs selectively in PEO1 cells. (A) Quantitation of PEO1 cells positive for phospho-Ser^2056 DNA-PKcs foci following 72 hours exposure to increasing concentrations of ABT-888. (B) Quantitation of PEO1 cells positive for phospho-Ser^2056 DNA-PKcs foci following 72 hours exposure to diluent (0.2% DMSO), 500 nM DNA-PKi, 5 μM ATMi alone (columns 1-3) or with 20 μM ABT-888 (columns 4-6). (C) Representative confocal images of PEO1 cells from (B). Phospho-H2AX is shown in green, phospho-Thr^2609 DNA-PKcs in red, and Hoechst 33258 in blue. Results in (A) and (B) are presented as means±SEM of 3 independent experiments.
FIG. 9. siRNA-mediated knockdown of NHEJ components reduces ABT-888 induced formation of phospho-H2AX foci. PEO1 cells, following siRNA-mediated knockdown of Ku80 (A) or Artemis (B), were exposed to either diluent (0.1% DMSO) or 20 μM ABT-888 for 72 hours, fixed, and stained for phospho-H2AX foci. Positive nuclei were defined as having >10 foci. Results are presented as means±SEM of 3 independent experiments. […]
Coverslips were then washed three times with PBS and incubated for 1 h with Alexa Fluor 488- and/or 568-conjugated secondary antibody (Invitrogen) diluted 1:1000. […] Phospho-H2AX positive cells (defined as having >10 foci/cell) were counted on a Zeiss Axioplan microscope. […] Quantitation and image processing were performed using the Zeiss Zen software package and Adobe Photoshop CS3.

PEO1 cells = test: Cytogenetics, metaphase spreads, PEO1
Protocol: FIG. 4. PARP inhibitor-induced chromosomal derangement and genomic instability is dependent on DNA-PK activity. (A) Representative images of metaphase spreads from cells treated with diluent (0.2% DMSO), 500 nM DNA-PKi, 2.5 μM ABT-888, or both ABT-888 and DNA-PKi for 72 hours. Chromosomal breaks are marked with arrowheads and radial structures are marked with asterisks. (B) Quantitation of data from (A) showing average radial chromosomes per cell (n=100 for each data point pooled from two separate experiments, error bars represent SEM). † indicate values that are zero. (C) Calculated mutagenesis frequency in BRCA2-mutant CAPAN1 cells after control treatment or exposure to ABT-888 with or without 250 nM DNA-PKi. Each bar represents the mean±SEM of 5-8 plates.
Cell harvest and metaphase slide preparation were performed for metaphase analysis as described elsewhere (Fletcher, Curr. Protoc. Hum. Genet., 2:Unit 10.13. (1994)). Fifty non-banded metaphases from each cell line were analyzed and scored for radial formations as well as major and minor breakage according to the International System of Human Cytogenetic Nomenclature. Images of cells with breakage were captured using a CytoVision Imaging System (Genetix; New Milton, UK).

Structure (SMILES): C[C@]1(c2nc3c(C(N)=O)cccc3[nH]2)CCCN1 [ABT-888]
- phosphorylation of DNA-PKcs at Thr2609 and H2AX at Ser139 ([1]; ABT-888 0-40 μM): phosphorylated in a dose-dependent manner
- phospho-H2AX foci ([2]; 20 μM ABT-888, 72 hours): induced phospho-H2AX foci
- DNA-PKcs autophosphorylation at Ser2056 ([2]; 72 hours): increased
- ABT-888 induced phospho-H2AX foci after downregulation of Ku80 or Artemis ([2]; siRNA knockdown, 20 μM ABT-888, 72 hours): reduced ABT-888 induced phospho-H2AX foci
- chromosome breaks and aberrant radial structures (PEO1 cells; 2.5 μM ABT-888, 72 hours): induced the formation of chromosome breaks and aberrant radial structures

Structure (SMILES): CCN1CCN(CC(=O)Nc2ccc(-c3cccc4c(=O)cc(N5CCOCC5)oc34)c3sc4ccccc4c23)CC1 [AZ 12594248]
- effect on ABT-888-induced phosphorylation of DNA-PKcs and H2AX ([1]; with 20 μM ABT-888, 500 nM DNA-PKi or 5 μM ATMi): prevented the ABT-888-induced phosphorylation of DNA-PKcs and H2AX
- effect on ABT-888-induced formation of foci and phosphorylation of DNA-PKcs ([2]; 500 nM DNA-PKi with 20 μM ABT-888, 72 hours): reduced
- effect on ABT-888-induced chromosome breaks and radial structures (PEO1 cells; 500 nM DNA-PKi with 2.5 μM ABT-888, 72 hours): substantially diminished this effect
